Measurements: US12454559B2, “Activating mitotic checkpoint control mechanisms” (The Regents of the University of Michigan, priority 2015, dated 2025)

Key:
HeLa cells = experiment: Duration of mitosis / mitotic arrest by time-lapse imaging of HeLa cells expressing rapamycin-dimerizable Mps1 and KNL1 phosphodomain (eSAC); assay type: cell-based, human
Text: As described elsewhere herein, a kinetochore-independent SAC activator was engineered which comprises a region of KNL1 that contains a series of Mps1 phosphorylation sites, known as “MELT repeats”, which are necessary for SAC activation, but lacks the kinetochore-localization domain at the C-terminus or the newly identified transient localization domain at its N-terminus (FIG. 21). FKBP12 was fused to this minimal KNL1 phosphodomain and FRB to Mps1, and rapamycin was used to induce dimerization of the fusion proteins in HeLa cells (FIGS. 17B, 22). […] These cells maintained an aligned metaphase plate indicating an inability to initiate anaphase and that the observed mitotic arrest was not due to the disruption of kinetochore-microtubule interactions. […] To further ensure kinetochore-independent operation of the dimerized proteins, the kinetochore-localization domain of Mps1 was removed (FIG. 17E). […] Furthermore, individually inhibiting the kinase activity of exogenous Mps1 using an analog-sensitive version of the kinase domain or preventing the phosphorylation of the minimal KNL1 phosphodomain by using a non-phosphorylatable version of the phosphodomain each prevented the rapamycin-induced mitotic arrest (FIG. 23). Thus, the catalytic activity of the Mps1 kinase domain and the Mps1 phosphorylation sites within the minimal phosphodomain are both essential for the rapamycin-induced metaphase arrest. […] The above described system of FKBP12/FRB-dimerizable Mps1 kinase domain and KNL1 phosophodomains is referred to in this example as an ectopic SAC activation system (eSAC).
MELT repeats in the eSAC phosphodomain were phosphorylated only in the presence of rapamycin, and were not phosphorylated if the SAC was activated by creating unattached kinetochores by treatment with the microtubule depolymerizing drug nocodazole (FIG. 18A). Reciprocally, the MELT repeats in endogenous KNL1 were not appreciably phosphorylated in rapamycin-treated cells, but were strongly phosphorylated in nocodazole-treated cells. […]

yeast cells = experiment: Yeast cell-cycle progression (large-budded / metaphase-arrested cells) after rapamycin-induced anchoring; assay type: cell-based, budding yeast
Procedure: Stock solution (1 mg ml^−1) of rapamycin in DMSO was diluted ×1,000 to achieve 1 μg ml^−1 final concentration in all experiments involving rapamycin-induced dimerization.
(§1) The ATP analogues 1-NMPP1 and 1-NAPP1 (final concentration 50 μM) were used to block the activity of mps1-as1 and ipl1-as6, respectively. Cells were first synchronized in S-phase using 100 mM hydroxyl urea (HU) for 2.5 h, washed with YPD, and then released into media containing the appropriate inhibitor for 15 min. This was followed by the addition of rapamycin to the media to anchor Mps1-Frb at Mtw1-C. The bud size was used to monitor cell-cycle progress.
Anaphase cells in cycling cultures will also be scored as large-budded cells by this criterion. In strains carrying fluorescent markers, the separation of the kinetochore clusters or spindle pole bodies was used to determine whether or not the cells arrested in mitosis. Large-budded cells with kinetochore-cluster separation smaller than 1 μm or spindle length smaller than 2 μm were scored as metaphase-arrested cells (ref. 68; herein incorporated by reference in its entirety).

ipl1-as6 = experiment: Spindle localization of Sli15-GFP in pre-anaphase cells expressing ipl1-as6; assay type: cell-based, budding yeast; conditions: 50 μM
Procedure: as §1
To study the effect of 1-NAPP1 on ipl1-as6 activity, the spindle localization of Sli15-GFP was measured in pre-anaphase cells67. The bud size was used to find pre-anaphase cells. If the bud was smaller than 50% in size as compared with the mother cell, and contained a short bar of Sli15-GFP located within the mother cell and at the bud neck, then the cell was deemed to be in pre-anaphase.

CC(C)(C)n1nc(Cc2cccc3ccccc23)c2c(N)ncnc21 [1NM-PP1]
Effect on eSAC-induced arrest (HeLa cells; 10 μM with Rapamycin, analog-sensitive Mps1S602A kinase domain with minimal phosphodomain): abrogated the eSAC-induced arrest
Effect on SAC activation by Mps1-Frb anchored at the kinetochore (yeast cells; heterozygous diploids expressing mps1-as1 and Mps1-Frb, 1-NMPP1 15 min, then rapamycin): does not affect SAC activation

c1nc2nc(Nc3ccc(N4CCOCC4)cc3)nc(NC3CCCCC3)c2[nH]1 [Reversine]
Effect on rapamycin-induced mitotic arrest (time until anaphase entry) (HeLa cells; HeLa cells in rapamycin-induced arrest, KNL1 phosphodomain-Mps1 dimerization): reversed rapidly
Effect on SAC and cell division (duration of mitosis) (HeLa cells; HeLa cells, Reversine-treated vs untreated, no rapamycin): inactivates the SAC and significantly accelerates cell division

CC(C)(C)n1nc(-c2cccc3ccccc23)c2c(N)ncnc21 [1-NAPP1]
Inhibition of ipl1-as6 (Sli15-GFP spindle localization) (ipl1-as6): inhibits ipl1-as6
Effect on SAC activation induced by Mps1 anchored at Mtw1-C (yeast cells; S-phase synchronized ipl1-as6 cells released into 1-NAPP1 and rapamycin): did not have any effect on SAC activation

B1: Spc105120: 329: minimal, anchorable phosphodomain comprising residues 120-329 of Spc105, contains all 6 MELT motifs (protein)
chain: LVTSTQIDDARTEEKTAAEEDPDTSGMELTEPIVATSDSNKASQHDPTSMEMTEVFPRSIRQKNPDVEGESIESSQQIDDVEAVREETMELTAIHNVHDYDSISEDTVEGEPIDLTEYESKPYVPNSVSRSTGKSSDYSVERSNDKSDLSKSENKTNSSQPMEITDIFHADPQNPMGLHSDNNINDDGNEMELTQIQTNFDRDNHHIDES
modifications: left off: small tags and cut ends
notes: minimal, anchorable phosphodomain comprising residues 120-329 of Spc105, contains all 6 MELT motifs
Cell-cycle arrest / SAC activation when anchored to Mps1 (yeast cells; anchored to Mps1-Fkbp12 with rapamycin, asynchronously dividing cells): arrested in metaphase
